Patent US20240122945A1, “USE OF NEUROACTIVE STEROIDS FOR TREATMENT OF SEXUAL DYSFUNCTION” (Sage Therapeutics, Inc., priority 2021, published 2024)

System: Patients With Major Depressive Disorder
Assay: Phase 3 MOUNTAIN study: sexual functioning by Changes in Sexual Functioning Questionnaire-14 (CSFQ-14), post-hoc analysis
Type: in vivo, human
Details: for Odds Ratio for Sexual Dysfunction (Compound (1) relative to placebo): GEE model
Protocol: Results from the multicenter, double-blind, randomized, placebo-controlled Phase 3 MOUNTAIN trial (NCT03672175) evaluating the efficacy, safety, and tolerability of 14-day treatment with 20 mg or 30 mg of Compound (1) compared with placebo (PBO) have been previously presented (Clayton, A. H. Presented at SOBP 2020 Virtual Meeting).
This analysis assessed the effect of 30 mg of Compound (1) treatment compared with PBO on sexual function, as measured by the Changes in Sexual Functioning Questionnaire-14 (CSFQ-14), in the MOUNTAIN trial.
Adult outpatients (18-65 years; n=581) with MDD (HAMD-17 total score≥22 and MADRS total score≥32) were randomized 1:1:1 to Compound (1) 20 mg (data not shown), Compound (1) 30 mg, or PBO, once-nightly for 2 weeks, with follow-up through Day 42 (see FIG. 1 for Study Design). Standard of care antidepressants that had been taken at the same dose for ≥60 days prior to Day 1 of the trial were permitted. Exclusion criteria included attempted suicide associated with the current depressive episode; treatment-resistant depression, and medical history of bipolar disorder, schizophrenia, and/or schizoaffective disorder.
Exploratory, post-hoc analyses included evaluation of sexual functioning using the 14-item; self-report CSFQ-14 at baseline, Day 15, 28, and 42.
Male and female sexual functioning was evaluated as an exploratory endpoint with the validated, 14-item, patient-reported CSFQ-14 scores at baseline, Day 15, Day 28, and Day 42. CSFQ-14 also has 5 sub-scales that measure pleasure, desire/frequency, desire/interest, arousal/excitement, and orgasm/completion, which were also evaluated. Sexual dysfunction was defined as a CSFQ-14TS of ≤41 for females and ≤47 for males. Mixed model for repeated measure and generalized estimating equation were used for analysis on patients with a baseline HAMD-17 total score≥24 (n=323).
The model used was a generalized estimating equation (GEE) for binary response model, with factors for treatment (Compound (1) 30 mg or placebo), baseline CSFQ-14 total score, antidepressant use at baseline (Yes or No), assessment time point, and time point-by-treatment interaction with exchangeable covariance structure.
Odds ratio is the estimate of the odds of having CSFQ sexual dysfunction for subjects treated with Compound (1) relative to that for subjects treated with placebo.

C[C@@]1(O)CC[C@H]2[C@H](CC[C@@H]3[C@@H]2CC[C@]2(C)[C@@H](C(=O)Cn4cc(C#N)cn4)CC[C@@H]32)C1 [Compound (1), 1-(2-((3R,5R,8R,9R,10S,13S,14S,17S)-3-hydroxy-3,13-dimethylhexadecahydro-1H-cyclopenta[a]phenanthren-17-yl)-2-oxoethyl)-1H-pyrazole-4-carbonitrile]
difference vs PBO in percentage of male patients with sexual dysfunction across individual CSFQ-14 subscales (30 mg, Days 15, 28, 42, exception: arousal/excitement at Day 42 (FIG. 5)): no significant differences | difference vs PBO in percentage of female patients with sexual dysfunction across individual CSFQ-14 subscales (30 mg, Days 15, 28, 42, exception: desire/frequency at Day 15 and orgasm/completion at Day 28 (FIG. 4)): no significant differences | difference vs PBO in percentage of patients with sexual dysfunction in the individual CSFQ-14 subscales (30 mg, all patients): no significant differences | treatment-emergent sexual dysfunction (30 mg, overall conclusion): not associated with treatment-emergent sexual dysfunction | impairment of sexual function compared to placebo during the trial (30 mg, through Day 42): No impairment of sexual function | Odds Ratio for Sexual Dysfunction (Compound (1) relative to placebo) (Day 15, Men, 30 mg, CSFQ total score<=47 = sexual dysfunction): 0.72 | Odds Ratio for Sexual Dysfunction (Compound (1) relative to placebo) (Day 15, Women, 30 mg, CSFQ total score<=41 = sexual dysfunction): 1.00 | Odds Ratio for Sexual Dysfunction (Compound (1) relative to placebo) (Day 28, Men, 30 mg, CSFQ total score<=47 = sexual dysfunction): 1.07 | Odds Ratio for Sexual Dysfunction (Compound (1) relative to placebo) (Day 28, Women, 30 mg, CSFQ total score<=41 = sexual dysfunction): 1.01 | percentage of all patients with sexual dysfunction as assessed by CSFQ-14TS thresholds (Day 42 (181/272), from 82.4% (266/323) at baseline, Compound (1) 30 mg- and PBO-treated patients together): 66.5% | Odds Ratio for Sexual Dysfunction (Compound (1) relative to placebo) (Day 42, Men, 30 mg, CSFQ total score<=47 = sexual dysfunction): 0.88 | Odds Ratio for Sexual Dysfunction (Compound (1) relative to placebo) (Day 42, Women, 30 mg, CSFQ total score<=41 = sexual dysfunction): 0.91
